The source of these data is US11718589B2, “Compositions and methods of modulating short-chain dehydrogenase” (CASE WESTERN RESERVE UNIVERSITY, priority 2017, dated 2023).

The subject of test [1] is PGE2 in A549 cell culture. The test is described as follows: Induction of PGE2 in A549 cell culture. As to conditions: A549 cells; for induction of PGE2 in A549 cell culture at 0.1 μM (fold): 0.1 μM compound; for induction of PGE2 in A549 cell culture at 2.5 μM (fold): 2.5 μM compound. In kind it is cell-based. The procedure:
This Example provides data on two groups (Table 1 and Table 2) of structural analogues of identified 15-PGDH inhibitors. Data provided is the IC50 of each compound for inhibiting enzymatic activity of recombinant 15-PGDH in an in vitro assay. Recombinant 15-PGDH is human unless otherwise specified. Additionally, the example provides data for selected compounds on induction of PGE2 in A549 cell culture administered 2.5 μM or 0.1 μM of the selected compound.

A further test has as its target recombinant 15-PGDH (Homo sapiens (Human), UniProt P15428). Kind of test: Enzyme inhibition of recombinant 15-PGDH, in vitro assay. In kind it is biochemical. As to conditions: recombinant human 15-PGDH; read-out: Enzyme inhibition (IC50).

As usually defined, the IC50 is the point on the concentration scale where inhibition reaches its midpoint.

The structures appear in SMILES notation.

Sequence of recombinant 15-PGDH (P15428 whole entry): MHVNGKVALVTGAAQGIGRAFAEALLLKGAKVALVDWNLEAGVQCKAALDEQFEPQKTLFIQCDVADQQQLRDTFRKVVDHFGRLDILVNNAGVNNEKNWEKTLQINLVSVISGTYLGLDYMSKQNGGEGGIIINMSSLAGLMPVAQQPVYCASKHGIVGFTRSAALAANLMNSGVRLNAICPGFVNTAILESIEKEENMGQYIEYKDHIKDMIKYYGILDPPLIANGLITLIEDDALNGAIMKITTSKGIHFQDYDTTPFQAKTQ

Consider `O=C(c1ccc2nc(-c3ccccc3)c(-c3ccccc3)nc2c1)N1CCCCC1` [1b], for which, in test [1], the “induction of PGE2 in A549 cell culture at 0.1 μM (fold)” value (“induction of PGE2 … at 0.1 μM (fold)” for short) is recorded as 1.11 fold and the “induction of PGE2 in A549 cell culture at 2.5 μM (fold)” value (shortened to “induction of PGE2 … at 2.5 μM (fold)”) is given as 1.87 fold.

For the molecule `COc1ccc(-c2cc(C(F)(F)F)n3nc(C(=O)N4CCCCC4)cc3n2)cc1` [1a], on recombinant 15-PGDH, the IC50 was 24 nM. For the same molecule, in test [1], the “induction of PGE2 … at 0.1 μM (fold)” value was 1.29 fold and the “induction of PGE2 … at 2.5 μM (fold)” value is listed as 1.89 fold.

With `CCCC[S+]([O-])c1cc2nc(-c3ccc(OC)cc3)cc(-c3ccccc3)n2n1` (stereo not shown) [5a], in test [1], the “induction of PGE2 … at 0.1 μM (fold)” value is recorded as 1.08 fold and the “induction of PGE2 … at 2.5 μM (fold)” value was determined as 1.69 fold.

In the case of `CCCC[S+]([O-])c1cc2nc(-c3ccc(OC)cc3)cc(C(F)(F)F)n2n1` (stereo not shown) [3a], in test [1], the “induction of PGE2 … at 0.1 μM (fold)” value came to 1.45 fold and the “induction of PGE2 … at 2.5 μM (fold)” value was determined as 2.13 fold.

On to `COc1ccc(-c2cc(C(F)(F)F)n3nc(C(=O)N4CCC(CO)CC4)cc3n2)cc1` [16a], for which the IC50 at recombinant 15-PGDH is < 100 nM.

As to `O=C(c1ccc2nc(-c3ccccc3)c(-c3cccnc3)nc2c1)N1CCCCC1` [33b], the half-inhibitory concentration (IC50) on recombinant 15-PGDH was 20 nM.

For the molecule `CCCC[S+]([O-])c1cc2nc(-c3ccc(OC)cc3)cc(-c3c(C)nn(C)c3C)n2n1` (stereo not shown) [74a], the 50% inhibitory concentration (IC50) on recombinant 15-PGDH is 20 to 100 nM.

For the molecule `O=C(c1ccc2ncc(-c3ccc4c(=O)[nH]cc(Cl)c4c3)nc2c1)N1CCCCC1` [92b], at recombinant 15-PGDH, the IC50 was < 4 nM.
